Patent US20250051820A1 (priority 2021, published 2025)
Read-outs that look alike come from different tables or passages of the source.

Legend:
High Five cells [1] = system: High Five cells
Procedure: High Five cells (Thermo Fisher Scientific, Express Five™ SFM) were seeded at a seeding concentration of 1×10^6 cells/mL so as to satisfy a culture scale of 30 mL. Twenty-four hours after the initiation of culture, calcium chloride was added so as to increase a final concentration by 1, 10 and 100 mM. Here, a calcium chloride-free group was used as a control. From day 3 to 5, the cell culture solution was sampled and stained with a 0.2% trypan blue solution. The numbers of viable cells and dead cells were counted by a hemocytometer. From the total cell count and the viable-cell count, the rate of viable cells was calculated.

High Five cells [2] = conditions: for VP1 band intensity (relative value): MOI=0.1, day 4 supernatant, negative control = 100%
Procedure: High Five cells (Thermo Fisher Scientific, Express Five™ SFM) were seeded at a seeding concentration of 1×10^6 cells/mL so as to satisfy a culture scale of 30 mL.

High Five cells [3] = conditions: MOI=0.5, day 4 supernatant; for improvement of the yield of the recombinant protein: relative to absence of calcium chloride
Procedure: A High Five cell culture solution in which cells were seeded at a seeding concentration of 1×10^6 cells/mL so as to satisfy a culture scale of 30 mL, was infected with a recombinant baculovirus prepared by integrating a gene sequence of a norovirus VP1 protein, at MOI=0.5. On Day 1 after the initiation of culture, calcium chloride was added so as to increase a final concentration by 2.5, 25, 250, 500 and 1 000 μM, and then, the cell culture was continued. On day 3, Benzonase (Merck) was added so as to be a final concentration of 50 U/mL and […] protease inhibitor tablets (Thermo Fisher Scientific) was added, and then, the cell culture was continued. On day 4, the culture supernatant was collected in the same manner as in Example 2 and subjected to Western Blotting.
For Western Blotting, after electrophoresis was carried out in the same manner as in Example 1, a transfer reaction was carried out from the gel to PVDF membrane (Merck) by a semi-dry transfer device (ATTO CORPORATION). After the transfer reaction, the PVDF membrane was soaked in a 10% skim milk-containing TBS and incubated at room temperature for two hours. After the PVDF membrane was washed three times with an appropriate amount of TBS and soaked in an anti-norovirus VP1 protein antibody (manufactured by the inventors) diluted with a 1% skim milk-containing TBST and incubated at 4° C. for from 18 to 20 hours. The PVDF membrane was washed five times with an appropriate amount of TBST, soaked in a HRP-labeled anti-mouse antibody (Jackson Immuno Research Laboratories) diluted with 1% skim milk-containing TBST, and incubated at room temperature for one hour. The PVDF membrane was washed five times with an appropriate amount of TBST and allowed to develop color with Western Lightning-Plus ECL (Perkin Elmer). The PVDF membrane was photographed by an image analyzer (Bio-Rad) and subjected to densitometric analysis.
Densitometric analysis was carried out in the same manner as in Example 1, and the relative amount of VP1 to the condition in the absence of calcium chloride was calculated.

[Ca+2].[Cl-].[Cl-] [calcium chloride]
concentration of calcium chloride that is not cytotoxic (High Five cells [1]; High Five cells, day 3 to 5): ≤ 1000 µM
viable cell rate (High Five cells [1]; calcium chloride final concentration increased by 1 mM, added 24 h after initiation of culture, day 3 to 5, versus calcium chloride-free control): the same as in the control
viable cell rate (High Five cells [1]; calcium chloride final concentration increased by 10 mM, day 3): low
viable cell rate (High Five cells [1]; calcium chloride final concentration increased by 100 mM, day 3): low
VP1 band intensity (relative value) (High Five cells [2]; 25 μM calcium chloride added 0 hr after infection): 102%
improvement of the yield of a protein of interest (High Five cells [2]; 25 μM calcium chloride added 24 hours after the initiation of culture, relative to absence of calcium chloride): about 108
VP1 band intensity (relative value) (High Five cells [2]; 25 μM calcium chloride added 24 hr after infection): 111%
VP1 band intensity (relative value) (High Five cells [2]; 25 μM calcium chloride added 48 hr after infection): 102%
improvement of the yield of the recombinant protein (High Five cells [3]; calcium chloride 25 μM added on Day 1): about 40%
improvement of the yield of the recombinant protein (High Five cells [3]; calcium chloride 250 μM added on Day 1): about 40%
yield of the recombinant protein (High Five cells [3]; calcium chloride 500 μM added on Day 1): seems to decrease
yield of the recombinant protein (High Five cells [3]; calcium chloride 1 000 μM added on Day 1): seems to decrease
